**Q.** With CC(C)OC(=O)[C@H](C)N(C(=O)c1ccccc1)c1ccc(F)c(Cl)c1 (racemic) as the molecule, how does the logP read?
**A.** The logP was 4.41.

**Q.** With ClC=C(c1ccc(Cl)cc1)c1ccc(Cl)cc1 as the molecule, how does the logP read?
**A.** The logP was 5.27.

**Q.** With O=C(O)COc1nc(Cl)c(Cl)cc1Cl as the molecule, how does the logP read?
**A.** The logP was 2.09.

**Q.** With CCOC(=O)C(C)N(C(=O)c1ccccc1)c1ccc(Cl)c(Cl)c1 (racemic) as the molecule, how does the logP read?
**A.** The logP was 4.57.

**Q.** With COc1cc(Cl)c(OC)cc1Cl as the molecule, how does the logP read?
**A.** The logP was 3.46.

**Q.** With CC(C)Oc1cc(-n2nc(C(C)(C)C)oc2=O)c(Cl)cc1Cl as the molecule, how does the logP read?
**A.** The logP was 4.09.

**Q.** With Brc1c(Br)c(Br)c(Br)c(Br)c1Br as the molecule, how does the logP read?
**A.** Its logP is 6.51.

**Q.** Which logP does the source give for CCN(CC)C(=O)C(Cl)=C(C)OP(=O)(OC)OC here?
**A.** The logP was 1.34.

**Q.** With COP(=S)(OC)Oc1ccc(S(=O)(=O)N(C)C)cc1 as the molecule, how does the logP read?
**A.** Its logP is 2.28.

**Q.** Which logP does the source give for C=C1C(CCl)(CCl)C2(Cl)C(Cl)C(Cl)C1(Cl)C2(Cl)Cl (mixture of isomers) here?
**A.** The logP was 5.5.

**Q.** For COC(=O)C(C)N(C(=O)c1ccccc1)c1ccc(F)c(Cl)c1 (racemic), which logP is on record?
**A.** The logP was 3.48.

**Q.** For Clc1ccc(-c2cc(Cl)ccc2Cl)cc1, which logP is on record?
**A.** Its logP is 5.56.

**Q.** With Cc1nc(C)c(Cl)c(O)c1Cl as the molecule, how does the logP read?
**A.** The logP was 0.5.

**Q.** Which logP does the source give for COc1c(Cl)ccc(Cl)c1C(=O)O here?
**A.** The logP was 3.01.
